Measurements as given in patent publication US20170216315A1 (priority 2016, published 2017).
Marks after values point to notes of the source that are not given here.

Tests used:
male C57BL/6 mice [1] = assay: Appearance and H&E staining of mouse liver; format: in vivo; conditions: EK100 1, 5, 10 mg/kg/day vs EtOH group
Description: (§1) C-4. After “C-3” was completed, the mice were sacrificed. The weights of the mice hearts, livers, kidneys, spleens, and abdominal and epididymal fat pads were measured and recorded; the mice livers were washed with sterilized saline, and then the liver appearances were recorded by a camera. The collected organs and feces were stored at −80° C. for the following analysis (recording, sample collection and storage were conducted for all of the 8 mice from each group).
The photographs of the mouse liver appearance of each group recorded in [Preparation Examples]
Additionally, the photographs of stained mouse liver of each group recorded in [Preparation Examples]

male C57BL/6 mice [2] = assay: TBARS value of liver homogenate; conditions: for TBARS value: liver homogenate, alcoholic liquid diet, 4 weeks
[3] = Feed intake, relative weight of organs and of fat pads; format: in vivo, mice; conditions: for Relative weight of abdominal fat pad / Relative weight of epididymal fat pad / Relative weight of heart / Relative weight of kidney / Relative weight of liver / Relative weight of spleen: alcoholic liquid diet, week 4
Description: C-1. The feed intakes of mice were recorded every day (4 mice from each group were randomly picked for recording, and an average of the 4 mice was taken). The changes in the mice body weight were recorded at the last day of every week (i.e., an average of 8 mice from each group), over a four-week period.
as §1
The average values of daily feed intakes of mice of each group recorded in [Preparation Examples] Besides, the weights of mice organ and fat of each group obtained from [Preparation Examples] C-4 were averaged, respectively, and then the average weights (g) were divided by the average body weights of mice in week 4 from the corresponding group to obtain the relative weights of organs and the relative weights of fat.

[4] = EK100 1, 5, 10 mg/kg/day vs EtOH group, p<0.05

CC(C)[C@@H](C)/C=C/[C@@H](C)[C@H]1CC[C@H]2C3=CCC4C[C@@H](O)CC[C@]4(C)C3=CC[C@]12C (stereo partly shown) [EK100]
Number of fat vacuoles in liver tissue compared to EtOH (male C57BL/6 mice [1]; H&E staining, FIGS. 7A-7E): markedly decreased
Whitening phenomenon of liver compared to EtOH (male C57BL/6 mice [1]; liver appearance, FIGS. 6A-6E): decreased
TBARS value of liver compared to EtOH (male C57BL/6 mice [2]; [4]): significantly decreased
TBARS value (male C57BL/6 mice [2]; EK100_1X: 1 mg/kg/day gavage): 0.56 ± 0.04^b nmol malondialdehyde/mg protein
TBARS value (male C57BL/6 mice [2]; EK100_5X: 5 mg/kg/day gavage): 0.54 ± 0.05^b nmol malondialdehyde/mg protein
TBARS value (male C57BL/6 mice [2]; EK100_10X: 10 mg/kg/day gavage): 0.46 ± 0.04^b nmol malondialdehyde/mg protein
Relative weight of epididymal fat pad compared to EtOH [3, 4]: significantly lower
Relative weight of abdominal fat pad ([3]; EK100_1X: 1 mg/kg/day gavage): 0.21 ± 0.03^c g/100 g of mice body weight
Relative weight of epididymal fat pad ([3]; EK100_1X: 1 mg/kg/day gavage): 1.30 ± 0.11^c g/100 g of mice body weight
Relative weight of heart ([3]; EK100_1X: 1 mg/kg/day gavage): 0.53 ± 0.03^bc g/100 g of mice body weight
Relative weight of kidney ([3]; EK100_1X: 1 mg/kg/day gavage): 1.33 ± 0.04^a g/100 g of mice body weight
Relative weight of liver ([3]; EK100_1X: 1 mg/kg/day gavage): 4.50 ± 0.14^a g/100 g of mice body weight
Relative weight of spleen ([3]; EK100_1X: 1 mg/kg/day gavage): 0.53 ± 0.03^a g/100 g of mice body weight
Relative weight of abdominal fat pad ([3]; EK100_5X: 5 mg/kg/day gavage): 0.41 ± 0.06^b g/100 g of mice body weight
Relative weight of epididymal fat pad ([3]; EK100_5X: 5 mg/kg/day gavage): 1.42 ± 0.14^c g/100 g of mice body weight
Relative weight of heart ([3]; EK100_5X: 5 mg/kg/day gavage): 0.57 ± 0.04^ab g/100 g of mice body weight
Relative weight of kidney ([3]; EK100_5X: 5 mg/kg/day gavage): 1.28 ± 0.05^a g/100 g of mice body weight
Relative weight of liver ([3]; EK100_5X: 5 mg/kg/day gavage): 4.33 ± 0.20^a g/100 g of mice body weight
Relative weight of spleen ([3]; EK100_5X: 5 mg/kg/day gavage): 0.55 ± 0.04^a g/100 g of mice body weight
Relative weight of abdominal fat pad ([3]; EK100_10X: 10 mg/kg/day gavage): 0.40 ± 0.04^b g/100 g of mice body weight
Relative weight of epididymal fat pad ([3]; EK100_10X: 10 mg/kg/day gavage): 1.62 ± 0.07^c g/100 g of mice body weight
Relative weight of heart ([3]; EK100_10X: 10 mg/kg/day gavage): 0.51 ± 0.01^bc g/100 g of mice body weight
Relative weight of kidney ([3]; EK100_10X: 10 mg/kg/day gavage): 1.14 ± 0.02^b g/100 g of mice body weight
Relative weight of liver ([3]; EK100_10X: 10 mg/kg/day gavage): 4.48 ± 0.10^a g/100 g of mice body weight
Relative weight of spleen ([3]; EK100_10X: 10 mg/kg/day gavage): 0.55 ± 0.02^a g/100 g of mice body weight
